We go through 17 molecules from PMC8224453, “A New PqsR Inverse Agonist Potentiates Tobramycin Efficacy to Eradicate Pseudomonas aeruginosa Biofilms” (Advanced Science, 2021).

In data set [1] the target is T1, PqsR (Pseudomonas aeruginosa, UniProt Q9I4X0).
T1 construct: which expresses PqsR and the β-galactosidase LacZ under the control of the pqsA promoter; expressed in transfected cells; host or cells: E. coli DH5α carrying plasmid pEAL08-2
As to the kind of experiment: PqsR β-galactosidase reporter-gene assay in E. coli DH5α. Particulars: for IC50 PqsR: E. coli reporter-gene assay, result in words. The data set is classed as cell-based. The procedure: 3. Primary Activity Assays
The inverse agonistic/antagonistic activity of potential PqsR ligands was evaluated in a β-galactosidase reporter gene assay in E. coli as previously described.[3] In short, test compounds were co-incubated with E. coli DH5α cells containing the plasmid pEAL08-2,[4] which expresses PqsR and the β-galactosidase LacZ under the control of the pqsA promoter.
The inverse agonistic/antagonistic activity of compounds was measured in the presence of 50 nM PQS. After incubation, galactosidase activity was quantified photometrically and expressed as ratio of controls. The given IC50 values represent the mean of at least two independent experiments using at least eight different concentrations of test compound with n = 4. Non-linear regression analysis was performed using OriginPro 2020. […]

The subject of data set [2] is pyocyanin production in PA14 wt. As to the kind of experiment: Pyocyanin assay in PA14 wt. It is filed as cell-based. The conditions noted are these: Pseudomonas aeruginosa, PA14, read-out: IC50 pyocyanin. As to the method: The pyocyanin inhibitory effect of the synthesized compounds and the compound (4) loaded SqNPs on PA14 wt were investigated by pyocyanin assay as described in previous work.[2,5] Briefly, PA14 wt was grown in PPGAS medium, overnight, at 37 °C, shaking at 200 rpm. The bacterial suspension was then centrifuged at 7.450 g, washed twice and diluted to a final OD600 (absorption at 600 nm) of 0.02 (2∙10^7 CFU/mL) in fresh PPGAS. 1.5 mL of the […]
(1 picture or pasted object on this page, not shown here) […]
culture was distributed in each well of the 24 well-plate. The free synthesized QSI prepared in DMSO, compound (4) loaded SqNPs were supplemented to bacteria-containing wells (1:100 dilutions). PA14 wt treated with either PBS or drug-free SqNPs (200 μg/mL) served as controls. Following 16 h incubation under aerobic conditions, pyocyanin in 900 μL of bacteria culture was extracted with chloroform and re-extracted with 0.2 M HCl. Pyocyanin production level was measured as the absorption at 520 nm, which was normalized to cell growth measured as OD600. 0.2 M HCl served as blank samples. Three independent experiments were conducted in triplicate. Non-linear regression analysis was performed using […]
(4) loaded SqNPs on PA14 wt. The pyocyanin inhibitory efficacy was improved by a factor of […]
It is noted that as reported in our prior
Figure S2. The production of pyocyanin levels compared to control PA14 wide type (wt) of the samples treated with 200 μg/mL drug free SqNPs. Three independent experiments were conducted in triplicate. […]
(also on this page, place not known: ( 4) -containing -free bacteria re -extracted compo und ( 4) (IC 50 nM ) (IC 50 nM ). drug P A14 5,6,7,8 -tetradeutero-2-heptyl-4(1H)-quinolone standa rd -40 -20 0 20 40 60 80 100 120 0.005 0.05 0.5 pyo production inhibition [%] Compound concentration loaded SqNPs [µM] IC50 = 100 ± 0.018 [nM])

Data set [3] deals with T1, PqsR. The conditions noted are these: read-out: IC50 (PqsR); Figure 1B, earlier hits; cited from earlier work.
A short description of data set [4]: Kinetic turbidimetric solubility assay. The conditions noted are these: PBS, aqueous buffer, kinetic from dmso stock, read-out: Kinetic solubility S kin. The data set is classed as physicochemical. The procedure: 5.4. Kinetic Turbidimetric Solubility Assay
The desired compounds were sequentially diluted in DMSO in a 96-well plate. A 3 µL of each well were transferred into another three 96-well plates, followed by addition of 147 µL of PBS. Plates were shaken for 5 min at 600 rpm at room temperature (r.t.), and the absorbance at 620 nm was measured. Absorbance values were normalized by blank […]
subtraction and plotted using GraphPad Prism 8.4.2 (GraphPad Software, San Diego, CA, […]

The nature of data set [5]: Metabolic stability half-life (matrix not given). The data set is classed as in vitro ADME. The conditions noted are these: matrix not stated; read-out: metabolic stability half-life t 1/2. The procedure: First, we evaluated the most promising compounds considering in vitro pharmacokinetic properties such as solubility and metabolic stability. […] Compounds 4 and 19 were moderately stable with half‐lives of 10 and 19 min, respectively.

Molecules are shown by their SMILES. Converted amounts (≈) assume the structure as drawn. Read-outs that look alike come from different tables or passages of the source. Some results are limits rather than exact numbers.

T1 sequence (Q9I4X0 whole entry): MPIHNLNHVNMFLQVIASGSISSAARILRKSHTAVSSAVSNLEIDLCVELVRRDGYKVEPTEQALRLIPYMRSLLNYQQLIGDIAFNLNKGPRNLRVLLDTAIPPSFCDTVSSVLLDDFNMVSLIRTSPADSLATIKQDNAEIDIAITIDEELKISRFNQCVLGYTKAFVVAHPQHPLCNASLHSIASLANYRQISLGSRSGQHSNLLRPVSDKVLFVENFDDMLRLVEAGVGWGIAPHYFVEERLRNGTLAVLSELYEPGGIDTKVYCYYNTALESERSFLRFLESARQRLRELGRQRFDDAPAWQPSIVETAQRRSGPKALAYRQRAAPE

The term IC50 denotes the concentration that gives 50% inhibition. Turning to `FC(F)(F)c1cc(NCc2cn(-c3ccccc3Cl)nn2)ccn1` [Compound 7], the “IC50 PqsR” value against PqsR [1] is “inactive”. Also, the 50% inhibitory concentration (IC50) in data set [2] is more than 5000 nM.
On to `FC(F)(F)c1cc(NCc2cn(-c3ccc(Cl)c(Cl)c3)nn2)ccn1` [Compound 16], for which the results for the IC50 (against PqsR [1]; in data set [2]) were 24 nM and 354 nM, respectively.
For `FC(F)(F)c1cc(NCc2cn(-c3ccc(Nc4ccccc4)cc3)nn2)ccn1` [Compound 15], in that order: 31 nM and 1060 nM.
As for `Nc1cccc(C(F)(F)F)n1` [Compound 1], on PqsR [3], the half-inhibitory concentration (IC50) is 33100 nM.
In general, kinetic solubility refers to solubility judged after dilution from a stock solution rather than from solid. For `Nc1cc(NCc2cn(-c3ccc(Oc4ccccc4)cc3)nn2)cc(C(F)(F)F)n1` [Compound 20], the kinetic solubility at 5 min in data set [4] is 13 µM (≈ 5.54 µg/mL). Further, the IC50 in data set [2] is 351 nM.
For `FC(F)(F)c1ccc(-n2cc(CNc3ccnc(C(F)(F)F)c3)nn2)cc1` [Compound 13], the results for the half-maximal inhibitory concentration (IC50) (on PqsR [1]; in data set [2]) were 129 nM and more than 5000 nM, respectively.
As for `Fc1ccccc1-n1cc(CNc2ccnc(C(F)(F)F)c2)nn1` [Compound 6], at PqsR [1], the “IC50 PqsR” value is “inactive”. For the same molecule, the concentration for half-maximal inhibition (IC50) in data set [2] was more than 10000 nM.
As for `FC(F)(F)c1cc(NCc2cn(-c3ccc(Cl)cc3)nn2)ccn1` [Compound 9], the concentration for half-maximal inhibition (IC50) on PqsR [1] stood at 79 nM; in data set [2], 7730 nM.
`COc1ccc(-n2cc(CNc3ccnc(C(F)(F)F)c3)nn2)cc1` [Compound 11]: the figures for the IC50 (against PqsR [1]; in data set [2]) were 81 nM and 2500 nM, respectively.
Regarding `Oc1ccc(-n2cc(CNc3ccnc(C(F)(F)F)c3)nn2)cc1` [Compound 10], the “IC50 PqsR” value on PqsR [1] is “inactive ^a)”.
On to `Fc1ccc(-n2cc(CNc3ccnc(C(F)(F)F)c3)nn2)cc1` [Compound 3], for which the IC50 on PqsR [1] was 196 nM; in data set [2] it was more than 5000 nM.
For `N#Cc1ccc(-n2cc(CNc3ccnc(C(F)(F)F)c3)nn2)cc1` [Compound 14], in that order: 655 nM and more than 10000 nM.
For `Fc1cccc(-n2cc(CNc3ccnc(C(F)(F)F)c3)nn2)c1` [Compound 5], on PqsR [1], the “IC50 PqsR” value is “inactive”. Besides, the IC50 in data set [2] was more than 5000 nM.
Consider `FC(F)(F)Oc1ccc(-n2cc(CNc3ccnc(C(F)(F)F)c3)nn2)cc1` [Compound 12], for which the IC50 at PqsR [1] worked out at 30 nM; in data set [2] it was 1180 nM.
`FC(F)(F)Oc1ccc(-n2cc(CNc3ccnc(C(F)(F)F)c3)nn2)cc1Cl` [Compound 18]: the IC50 on PqsR [1] is 15 nM; in data set [2] it was 438 nM. In addition, the solubility (kinetic) at 5 min in data set [4] turned out to be 31.3 µM (≈ 13.7 µg/mL). Further, in data set [5], the half-life worked out at 55 min.
For `FC(F)(F)c1cc(NCc2cn(-c3ccc(Oc4ccccc4)c(Cl)c3)nn2)ccn1` [Compound 19], the IC50 on PqsR [1] was found to be 12 nM; in data set [2], 181 nM. The half-life in data set [5] was 19 min.
As to `FC(F)(F)c1cc(NCc2cn(-c3cccc(Cl)c3)nn2)ccn1` [Compound 8], the IC50 against PqsR [1] is 123 nM; in data set [2] it was more than 2500 nM.
